In patent publication US8557833B2, “Aminopyrimidines useful as kinase inhibitors” (priority 2005, dated 2013):
Where two headings read alike, the source gives them in different places.

Assays:
FLT-3 = target: T1, FLT-3 (Homo sapiens, UniProt P36888); test: FLT-3 inhibition assay, radiometric filter-binding; assay type: biochemical
T1 sequence (P36888 27-993): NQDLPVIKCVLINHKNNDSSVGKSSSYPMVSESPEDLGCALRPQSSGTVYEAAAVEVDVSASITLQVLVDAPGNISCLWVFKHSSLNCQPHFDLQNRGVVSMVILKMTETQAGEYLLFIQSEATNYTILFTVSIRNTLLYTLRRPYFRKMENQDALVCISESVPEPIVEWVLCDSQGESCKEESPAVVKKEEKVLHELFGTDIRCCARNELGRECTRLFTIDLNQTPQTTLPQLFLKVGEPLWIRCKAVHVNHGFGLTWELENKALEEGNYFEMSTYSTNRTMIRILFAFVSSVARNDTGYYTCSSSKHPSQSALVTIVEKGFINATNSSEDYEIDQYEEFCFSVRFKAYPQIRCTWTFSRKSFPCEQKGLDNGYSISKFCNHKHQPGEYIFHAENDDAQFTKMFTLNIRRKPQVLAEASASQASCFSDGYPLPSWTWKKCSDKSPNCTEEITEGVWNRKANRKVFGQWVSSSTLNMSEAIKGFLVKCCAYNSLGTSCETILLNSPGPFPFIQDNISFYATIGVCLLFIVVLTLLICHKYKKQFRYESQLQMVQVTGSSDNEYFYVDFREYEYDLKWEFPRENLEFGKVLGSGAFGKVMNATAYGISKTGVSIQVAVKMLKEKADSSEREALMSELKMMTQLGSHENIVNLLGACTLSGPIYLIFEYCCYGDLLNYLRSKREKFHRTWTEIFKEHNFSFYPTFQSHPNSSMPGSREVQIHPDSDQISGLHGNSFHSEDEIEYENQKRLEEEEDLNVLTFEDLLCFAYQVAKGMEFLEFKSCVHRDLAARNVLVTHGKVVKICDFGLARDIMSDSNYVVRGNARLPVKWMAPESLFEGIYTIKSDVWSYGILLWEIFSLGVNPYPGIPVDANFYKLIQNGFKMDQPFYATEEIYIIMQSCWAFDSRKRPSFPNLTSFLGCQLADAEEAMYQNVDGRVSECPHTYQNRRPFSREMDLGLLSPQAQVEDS
Experimental: This assay monitors the 33P incorporation into a substrate poly(Glu, Tyr) 4:1 (pE4Y). […] Final substrate concentrations in the assay were 90 μM ATP and 0.5 mg/ml pE4Y (both from Sigma Chemicals, St Louis, Mo.). […] Reactions were carried out at room temperature.
Two assay solutions were prepared. Solution 1 contains 100 mM HEPES (pH 7.5), 10 mM MgCl2, 25 mM NaCl, 1 mg/ml pE4Y and […] (containing 0.3 mCi of [γ-33^P]ATP for each reaction). Solution 2 contains 100 mM HEPES (pH 7.5), 10 mM MgCl2, 25 mM NaCl, 2 mM DTT, 0.02% BSA and 3 nM FLT-3. The assay was run on a 96 well plate by mixing 50 μl each of Solution 1 and […] of the compounds of the present invention. The reaction was initiated with Solution 2. […] All of the reaction volume was then transferred to a filter plate and washed with 5% TCA by a Harvester 9600 from TOMTEC (Hamden, Conn.). The amount of ^33P incorporation into pE4y was analyzed by a Packard Top Count Microplate Scintillation Counter (Meriden, Conn.). The data was fitted using Prism software to get an IC50 or Ki.

JAK3 = target: T2, JAK3 (Homo sapiens, UniProt P52333); test: biochemical
T2 sequence (P52333 1-1124): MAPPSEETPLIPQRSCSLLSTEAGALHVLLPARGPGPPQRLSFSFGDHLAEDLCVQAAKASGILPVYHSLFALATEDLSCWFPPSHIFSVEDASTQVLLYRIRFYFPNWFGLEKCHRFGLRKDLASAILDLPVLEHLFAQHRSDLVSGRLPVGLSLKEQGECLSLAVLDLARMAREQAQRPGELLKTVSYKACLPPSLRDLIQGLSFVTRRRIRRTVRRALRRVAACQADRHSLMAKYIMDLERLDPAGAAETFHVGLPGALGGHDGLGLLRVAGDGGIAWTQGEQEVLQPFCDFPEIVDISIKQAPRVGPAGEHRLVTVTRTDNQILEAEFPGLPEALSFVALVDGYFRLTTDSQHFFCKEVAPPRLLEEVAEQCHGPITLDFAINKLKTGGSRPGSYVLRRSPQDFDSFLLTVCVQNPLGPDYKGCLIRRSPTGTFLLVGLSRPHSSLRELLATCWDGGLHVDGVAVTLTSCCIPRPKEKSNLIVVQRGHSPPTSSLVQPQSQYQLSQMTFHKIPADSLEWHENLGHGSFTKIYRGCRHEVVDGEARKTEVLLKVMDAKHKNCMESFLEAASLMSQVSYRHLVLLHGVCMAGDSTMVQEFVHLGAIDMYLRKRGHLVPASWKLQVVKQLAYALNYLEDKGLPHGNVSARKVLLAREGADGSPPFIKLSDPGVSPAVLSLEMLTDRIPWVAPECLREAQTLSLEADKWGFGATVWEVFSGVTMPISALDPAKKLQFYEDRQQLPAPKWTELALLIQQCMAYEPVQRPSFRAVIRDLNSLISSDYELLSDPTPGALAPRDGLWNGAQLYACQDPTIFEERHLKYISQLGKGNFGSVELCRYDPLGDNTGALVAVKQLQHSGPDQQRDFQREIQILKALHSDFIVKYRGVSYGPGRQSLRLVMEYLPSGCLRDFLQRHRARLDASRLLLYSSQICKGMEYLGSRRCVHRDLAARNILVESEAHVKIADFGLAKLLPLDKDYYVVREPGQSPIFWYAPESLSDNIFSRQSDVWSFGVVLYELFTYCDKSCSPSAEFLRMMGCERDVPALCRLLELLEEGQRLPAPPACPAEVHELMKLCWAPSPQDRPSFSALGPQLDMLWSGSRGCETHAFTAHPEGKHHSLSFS
Experimental: Reactions were carried out in a kinase buffer containing 100 mM HEPES (pH 7.4), 1 mM DTT, 10 mM MgCl2, 25 mM NaCl, and 0.01% BSA. Substrate concentrations in the assay were 5 μM ATP (200 uCi/μmole ATP) and 1 μM poly(Glu)4Tyr. Reactions were carried out at 25° C. and 1 nM JAK3.
To each well of a 96 well polycarbonate plate was added 1.5 μl of a candidate JAK3 inhibitor along with 50 μl of kinase buffer containing 2 μM poly(Glu)4Tyr and 10 μM ATP. This was then mixed and 50 μl of kinase buffer containing 2 nM JAK3 enzyme was added to start the reaction. After 20 minutes at room temperature (25 C), the reaction was stopped with 50 μl of 20% trichloroacetic acid (TCA) that also contained 0.4 mM ATP. The entire contents of each well were then transferred to a 96 well glass fiber filter plate using a TomTek Cell Harvester. After washing, 60 μl of scintillation fluid was added and ^33P incorporation detected on a Perkin Elmer TopCount.

[1] = target: N-terminally truncated Abl kinase; test: Abl kinase activity inhibition assay, coupled enzyme; assay type: biochemical; conditions: read-out: Abl (wild) Ki; 110 μM ATP, 30° C., 21 nM Abl kinase
N-terminally truncated Abl kinase, sequence (P00519 28-1130): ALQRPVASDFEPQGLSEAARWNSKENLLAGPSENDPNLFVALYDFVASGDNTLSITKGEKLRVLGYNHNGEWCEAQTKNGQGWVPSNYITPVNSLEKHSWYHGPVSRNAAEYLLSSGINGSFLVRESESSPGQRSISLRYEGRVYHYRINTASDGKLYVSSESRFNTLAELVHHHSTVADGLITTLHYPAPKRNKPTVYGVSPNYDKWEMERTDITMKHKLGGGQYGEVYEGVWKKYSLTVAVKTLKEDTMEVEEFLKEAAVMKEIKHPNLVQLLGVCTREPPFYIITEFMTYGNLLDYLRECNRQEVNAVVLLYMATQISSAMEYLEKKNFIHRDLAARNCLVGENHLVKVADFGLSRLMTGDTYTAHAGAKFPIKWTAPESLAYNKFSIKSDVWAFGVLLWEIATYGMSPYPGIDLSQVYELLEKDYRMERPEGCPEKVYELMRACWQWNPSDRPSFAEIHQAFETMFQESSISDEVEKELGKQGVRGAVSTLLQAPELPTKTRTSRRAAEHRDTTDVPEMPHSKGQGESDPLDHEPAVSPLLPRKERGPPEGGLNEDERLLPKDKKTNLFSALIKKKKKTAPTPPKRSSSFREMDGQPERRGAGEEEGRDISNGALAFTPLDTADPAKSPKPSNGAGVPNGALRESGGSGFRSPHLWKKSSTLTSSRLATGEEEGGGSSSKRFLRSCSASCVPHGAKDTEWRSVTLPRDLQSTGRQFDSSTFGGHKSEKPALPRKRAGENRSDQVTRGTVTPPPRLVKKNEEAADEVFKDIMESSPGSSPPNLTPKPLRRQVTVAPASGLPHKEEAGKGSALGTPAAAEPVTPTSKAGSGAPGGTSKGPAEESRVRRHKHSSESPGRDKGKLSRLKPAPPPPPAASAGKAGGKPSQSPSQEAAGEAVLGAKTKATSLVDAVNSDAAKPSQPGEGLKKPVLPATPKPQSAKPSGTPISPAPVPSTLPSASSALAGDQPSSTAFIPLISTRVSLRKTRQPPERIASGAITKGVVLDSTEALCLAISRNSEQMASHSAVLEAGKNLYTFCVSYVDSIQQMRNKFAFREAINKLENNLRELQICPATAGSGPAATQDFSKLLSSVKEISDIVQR
Experimental: Final concentrations of the components of the coupled enzyme system were 2.5 mM phosphoenolpyruvate, 200 μM NADH, […] pyruvate kinase and 20 μg/ml lactate dehydrogenase.
An assay stock buffer solution was prepared containing all of the reagents listed above with the exception of ATP and the test compound of interest. […] Rates of reaction were obtained using a Molecular Devices Spectramax plate reader (Sunnyvale, Calif.) over 10 min at 30° C. The Ki values were determined from the residual rate data as a function of inhibitor concentration using nonlinear regression (Prism 3.0, Graphpad Software, San Diego, Calif.).

[2] = 5 μM ATP, 1 μM poly(Glu)4Tyr, 25° C., 1 nM JAK3, read-out: JAK-3 Ki
[3] = 90 μM ATP, 0.5 mg/ml pE4Y, room temperature, read-out: FLT-3 Ki

O=C(Nc1ccc(Sc2nc(Nc3cc(C4CC4)[nH]n3)cc(N3CCC3)n2)cc1)c1ccccc1Cl [Compound I-17]
Ki (FLT-3): 100 nM | Ki (JAK3; [2]): 79 nM

Cc1cc(Nc2cc(N3CCC3)nc(Sc3ccc(NC(=O)c4ccccc4OC(F)(F)F)cc3)n2)[nH]n1 [Compound I-8]
Ki (FLT-3): 170 nM

COc1ccccc1C(=O)Nc1ccc(Sc2nc(Nc3cc(C)[nH]n3)cc(N3CCC3)n2)cc1 [Compound I-6]
Ki (FLT-3): 120 nM

CCc1cccc(C(=O)Nc2ccc(Sc3nc(Nc4cc(C)[nH]n4)cc(N4CCC4)n3)cc2)c1Cl [Compound I-22]
Ki (FLT-3): 190 nM | Ki (JAK3): 62 nM

Cc1cc(Nc2cc(N3CCC3)nc(Sc3ccc(NC(=O)c4ccccc4C(F)(F)F)cc3)n2)[nH]n1 [Compound I-14]
Ki (FLT-3; [3]): 170 nM | Ki [1]: 36 nM

Cc1cc(Nc2cc(N3CCC3)nc(Sc3ccc(NC(=O)c4cccc(C)c4Cl)cc3)n2)n[nH]1 [Compound I-20]
Ki (FLT-3): 240 nM | Ki (JAK3): 61 nM

Cc1cccc(C(=O)Nc2ccc(Sc3nc(Nc4cc(C)[nH]n4)cc(N4CCC4)n3)cc2)c1 [Compound I-4]
Ki (FLT-3): 330 nM

Cc1cc(Nc2cc(N3CCC3)nc(Sc3ccc(NC(=O)c4cccc(C(F)(F)F)c4F)cc3)n2)n[nH]1 [Compound I-13]
Ki (FLT-3): 350 nM | Ki (JAK3): 220 nM

Cc1cc(Nc2cc(N3CCC3)nc(Sc3ccc(NC(=O)c4cc(Cl)ccc4Cl)cc3)n2)n[nH]1 [Compound I-21]
Ki (FLT-3): 550 nM

Cc1cc(Nc2cc(N3CCC3)nc(Sc3ccc(NC(=O)c4cccc(Cl)c4)cc3)n2)n[nH]1 [Compound I-12]
Ki (FLT-3): 540 nM

Cc1cc(Nc2cc(N3CCC3)nc(Sc3ccc(NC(=O)c4cccc(Cl)c4F)cc3)n2)n[nH]1 [Compound I-15]
Ki (FLT-3): 160 nM | Ki (JAK3; [2]): 120 nM | Ki [1]: 31 nM

Cc1cc(Nc2cc(N3CCC3)nc(Sc3ccc(NC(=O)c4ccccc4Cl)cc3)n2)[nH]n1 [Compound I-1, N-{4-[4-Azetidin-1-yl-6-(5-methyl-2H-pyrazol-3-ylamino)-pyrimidin-2-ylsulfanyl]-phenyl}-2-chloro-benzamide]
Ki (FLT-3; [3]): 100 nM | Ki (JAK3): 160 nM | Ki [1]: 36 nM

Cc1cc(Nc2cc(N3CCC3)nc(Sc3ccc(NC(=O)c4c(Cl)cccc4Cl)cc3)n2)n[nH]1 [Compound I-11]
Ki (FLT-3): 110 nM | Ki [1]: 21 nM

Cc1cc(Nc2cc(N3CCC3)nc(Sc3ccc(NC(=O)c4c(F)cccc4F)cc3)n2)[nH]n1 [Compound I-2, N-{4-[4-Azetidin-1-yl-6-(5-methyl-2H-pyrazol-3-ylamino)-pyrimidin-2-ylsulfanyl]-phenyl}-2,6-Difluoro-benzamide]
Ki (FLT-3; [3]): 180 nM | Ki [1]: 7 nM

Cc1cc(Nc2cc(N3CCC3)nc(Sc3ccc(NC(=O)c4ccccc4C(F)F)cc3)n2)[nH]n1 [Compound I-19]
Ki (FLT-3; [3]): 160 nM

Cc1cc(Nc2cc(N3CCC3)nc(Sc3ccc(NC(=O)c4ccccc4C)cc3)n2)[nH]n1 [Compound I-5]
Ki (FLT-3; [3]): 70 nM | Ki [1]: 68 nM

Cc1cc(Nc2cc(N3CCC3)nc(Sc3ccc(NC(=O)c4ccccc4F)cc3)n2)[nH]n1 [Compound I-3]
Ki (FLT-3; [3]): 220 nM
